The results in this text go back to US12454529B2, “Piperazine cyclic ureas” (SIRONAX LTD., priority 2020, dated 2025).

Broadly, the pEC50 is −log10 of the EC50, conventionally taken in molar units.

Molecules are shown by their SMILES. pEC50: −log10 of the molar value.

One test concerns HT-29 cells. In words: HT-29 cell necrosis/necroptosis inhibition (TNF-α + SMAC mimetic + zVAD-FMK; CellTiter-Glo cell viability). The class given is cell-based. The note with it: Homo sapiens, HT-29, 20 h, read-out: EC50 (Cell activity; Necrosis/Necroptosis Inhibitory Activity, Compounds 1-142). The essentials: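 HT-29 cells (~5,000/well) were switched to FBS-free McCOY's 5A holding TNF-α (10 ng/ml), SMAC mimetic (6 μM) and zVAD-FMK (10 μM), then dosed with a 10-point 1:3 series for 20 h at 37 °C. CellTiter-Glo luminescence gave viability; geometric mean EC50 from duplicates.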
For orientation: Cellular ATP, detected with luciferase, serves as a proxy for viable cell number.
As to `Cc1nn(C[C@@H]2CO2)c(C)c1-c1nc(N2CCN(C(=O)N3N=CC[C@H]3c3cc(F)cc(C#N)c3)CC2)ncc1F` [Compound 133, 3-((S)-1-(4-(4-(3,5-dimethyl-1-(((R)-oxiran-2-yl)methyl)-1H-pyrazol-4-yl)-5-fluoropyrimidin-2-yl)piperazine-1-carbonyl)-4,5-dihydro-1H-pyrazol-5-yl) fluorobenzonitrile], the pEC50 was 7.00 to 10.00.

Still in this test, the particulars now being: Homo sapiens; HT-29 cells, TNF-α 10 ng/ml + SMAC mimetic 6 μM + zVAD-FMK 10 μM, 20 hours; geometric mean, 10 points in duplicate; read-out: EC50 (Cell activity; Necrosis/Necroptosis Inhibitory Activity, Compounds 1-142).
For the compound `Cc1[nH]nc(CO)c1-c1nc(N2CCN(C(=O)N3N=CC[C@H]3c3cc(F)cc(C#N)c3)CC2)ncc1F` [Compound 74, (S)-3-fluoro-5-(1-(4-(5-fluoro-4-(3-(hydroxymethyl)-5-methyl-1H-pyrazol-4-yl)pyrimidin-2-yl)piperazine-1-carbonyl)-4,5-dihydro-1H-pyrazol-5-yl)benzonitrile], the pEC50 is 7.00 to 10.00. Still for that read-out and setting: as for `Cn1cc(-c2nc(N3CCN(C(=O)N4N=CC[C@H]4c4cc(F)cc(F)c4)CC3)ncc2F)ccc1=O` [Compound 89, (S)-5-(2-(4-(5-(3,5-difluorophenyl)-4,5-dihydro-1H-pyrazole-1-carbonyl)piperazin-1-yl)-5-fluoropyrimidin-4-yl)-1-methylpyridin-2(1H)-one], the figure is 7.00 to 10.00. With `Cc1nn(CC2CCOC2)c(C)c1-c1nc(N2CCN(C(=O)N3N=CC[C@H]3c3cc(F)cc(C#N)c3)CC2)ncc1F` (stereo partly drawn) [Compound 132, 3-((5S)-1-(4-(4-(3,5-dimethyl-1-((tetrahydrofuran-3-yl)methyl)-1H-pyrazol-4-yl)-5-fluoropyrimidin-2-yl)piperazine-1-carbonyl)-4,5-dihydro-1H-pyrazol-5-yl)-5-fluorobenzonitrile], the negative logarithm of the EC50 (pEC50) was 7.00 to 10.00.

In the case of `O=C(N1CCN(c2ncc(F)c(-c3cnn[nH]3)n2)CC1)N1N=CC[C@H]1c1cc(F)cc(F)c1` [Compound 8, (S)-(5-(3,5-difluorophenyl)-4,5-dihydro-1H-pyrazol-1-yl)(4-(5-fluoro-4-(1H-1,2,3-triazol-5-yl)pyrimidin-2-yl)piperazin-1-yl)methanone], the pEC50 is 7.00 to 10.00. With `N#Cc1cc(F)cc([C@@H]2CC=NN2C(=O)N2CCN(c3ncc(F)c(-c4cn[nH]c4)n3)CC2)c1` [Compound 54, (S)-3-fluoro-5-(1-(4-(5-fluoro-4-(1H-pyrazol-4-yl)pyrimidinyl)piperazine-1-carbonyl)-4,5-dihydro-1H-pyrazol-5-yl)benzonitrile], the pEC50 is 7.00 to 10.00. On the same count and under the same terms, as for `Cc1nn(CC(N)=O)nc1-c1nc(N2CCN(C(=O)N3N=CC[C@H]3c3cc(F)cc(F)c3)CC2)ncc1F` [Compound 32, (S)-2-(4-(2-(4-(5-(3,5-difluorophenyl)-4,5-dihydro-1H-pyrazole-1-carbonyl)piperazin-1-yl)-5-fluoropyrimidin-4-yl)-5-methyl-2H-1,2,3-triazol-2-yl)acetamide], the figure is 7.00 to 10.00.

The test is the same for the next values; noted with them: Homo sapiens; HT-29 cells, TNF-α 10 ng/ml + SMAC mimetic 6 μM + zVAD-FMK 10 μM, 20 hours; geometric mean, 10 points in duplicate; read-out: EC50 (Cell activity; Necrosis/Necroptosis Inhibitory Activity, Compounds 143-323).
As to `Cc1csc(C2CC=NN2C(=O)N2CCN(c3nc(-c4c(C)cnn4C)ccc3F)CC2)n1` (stereo not shown) [Compound 299, (4-(6-(1,4-dimethyl-1H-pyrazol-5-yl)-3-fluoropyridin-2-yl)piperazinyl)(5-(4-methylthiazol-2-yl)-4,5-dihydro-1H-pyrazol-1-yl)methanone], the pEC50 was 7.00 to 10.00. Same read-out and setting: the result for `Cc1nc(C)n(-c2nc(N3CCN(C(=O)N4N=CCC4c4coc(C)n4)CC3)ncc2F)n1` (stereo not shown) [Compound 211, (4-(4-(3,5-dimethyl-1H-1,2,4-triazol-1-yl)-5-fluoropyrimidin-2-yl)piperazin-1-yl)(5-(2-methyloxazol-4-yl)-4,5-dihydro-1H-pyrazol-1-yl)methanone] reads 7.00 to 10.00; that for `Cc1c(-c2nc(N3CCN(C(=O)N4N=CC[C@H]4c4cc(F)cc(C#N)c4)CC3)ncc2F)c(CO)nn1C` [Compound 165, (S)-3-fluoro-5-(1-(4-(5-fluoro-4-(3-(hydroxymethyl)-1,5-dimethyl-1H-pyrazol-4-yl)pyrimidin-2-yl)piperazine-1-carbonyl)-4,5-dihydro-1H-pyrazol-5-yl)benzonitrile], 7.00 to 10.00; that for `Cc1ncn(-c2nc(N3CCN(C(=O)N4N=CC[C@H]4c4cccc(F)c4)CC3)ncc2F)n1` [Compound 310, (S)-(4-(5-fluoro-4-(3-methyl-1H-1,2,4-triazol-1-yl)pyrimidin-2-yl)piperazin-1-yl)(5-(3-fluorophenyl)-4,5-dihydro-1H-pyrazol-1-yl)methanone], 7.00 to 10.00.

For the compound `Cc1nc(C)n(-c2nc(N3CCN(C(=O)N4N=CCC4c4csc(C)n4)CC3)ncc2F)n1` (stereo not shown) [Compound 213, (4-(4-(3,5-dimethyl-1H-1,2,4-triazol-1-yl)-5-fluoropyrimidin-2-yl)piperazin-1-yl)(5-(2-methylthiazol-4-yl)-4,5-dihydro-1H-pyrazol-1-yl)methanone], the pEC50 is 6.00 to 7.00. The same measure, in the same setting: the result for `CCn1ncnc1-c1nc(N2CCN(C(=O)N3N=CC[C@H]3c3cc(F)cc(C#N)c3)CC2)ncc1Cl` [Compound 168, (S)-3-(1-(4-(5-chloro-4-(1-ethyl-1H-1,2,4-triazol-5-yl)pyrimidin-2-yl)piperazine-1-carbonyl)-4,5-dihydro-1H-pyrazol-5-yl)-5-fluorobenzonitrile] reads 7.00 to 10.00; that for `Cc1nc(C)n(-c2nc(N3CCN(C(=O)N4N=CC[C@@H]4c4cnc(C)s4)CC3)ncc2F)n1` [Compound 239, (R)-(4-(4-(3,5-dimethyl-1H-1,2,4-triazol-1-yl)-5-fluoropyrimidinyl)piperazin-1-yl)(5-(2-methylthiazol-5-yl)-4,5-dihydro-1H-pyrazol-1-yl)methanone], 5.00 to 6.00; that for `Cc1nc(C)n(-c2ncc(F)c(N3CCN(C(=O)N4N=CCC4c4ncccc4Cl)CC3)n2)n1` (stereo not shown) [Compound 263, (5-(3-chloropyridin-2-yl)-4,5-dihydro-1H-pyrazol-1-yl)(4-(2-(3,5-dimethyl-1H-1,2,4-triazol-1-yl)-5-fluoropyrimidin-4-yl)piperazin-1-yl)methanone], 6.00 to 7.00. Same read-out and setting: as for `Cc1cnn(C)c1-c1ncc(F)c(N2CCN(C(=O)N3N=CCC3c3cscn3)CC2)n1` (stereo not shown) [Compound 160, (4-(2-(1,4-dimethyl-1H-pyrazol-5-yl)-5-fluoropyrimidin-4-yl)piperazin-1-yl)(5-(thiazol-4-yl)-4,5-dihydro-1H-pyrazol-1-yl)methanone], the figure is 7.00 to 10.00. In the case of `Cc1nc(C)n(-c2nc(N3CCN(C(=O)N4N=CC[C@H]4c4cc(F)cc(C#N)c4)CC3)c(F)cc2F)n1` [Compound 233, (S)-3-(1-(4-(6-(3,5-dimethyl-1H-1,2,4-triazol-1-yl)-3,5-difluoropyridin-2-yl)piperazine-1-carbonyl)-4,5-dihydro-1H-pyrazol-5-yl)-5-fluorobenzonitrile], the pEC50 is 7.00 to 10.00.

Take `CCS(=O)(=O)Nc1c(C)nn(-c2nc(N3CCN(C(=O)N4N=CC[C@H]4c4cc(F)cc(C#N)c4)CC3)ncc2F)c1C` [Compound 194, (S)—N-(1-(2-(4-(5-(3-cyano-5-fluorophenyl)-4,5-dihydro-1H-pyrazole-1-carbonyl)piperazin-1-yl)-5-fluoropyrimidin-4-yl)-3,5-dimethyl-1H-pyrazol-4-yl)ethanesulfonamide]: the pEC50 is 7.00 to 10.00.

Take `Cc1nc(CO)nn1-c1nc(N2CCN(C(=O)N3N=CC[C@H]3c3cc(F)cc(F)c3)CC2)ncc1F` [Compound 251, (S)-(5-(3,5-difluorophenyl)-4,5-dihydro-1H-pyrazol-1-yl)(4-(5-fluoro-4-(3-(hydroxymethyl)-5-methyl-1H-1,2,4-triazol-1-yl)pyrimidin-2-yl)piperazinyl)methanone]: the pEC50 was 7.00 to 10.00.
